4 compounds from ChEMBL document CHEMBL2074515, “Inhibitory effect of anti-diabetic agents on rat organic anion transporter rOAT1” (Eur J Pharmacol, 2000) can be followed below.

The target in this assay is T1, Solute carrier family 22 member 6 (Rattus norvegicus, UniProt O35956).
T1 sequence (O35956 whole entry): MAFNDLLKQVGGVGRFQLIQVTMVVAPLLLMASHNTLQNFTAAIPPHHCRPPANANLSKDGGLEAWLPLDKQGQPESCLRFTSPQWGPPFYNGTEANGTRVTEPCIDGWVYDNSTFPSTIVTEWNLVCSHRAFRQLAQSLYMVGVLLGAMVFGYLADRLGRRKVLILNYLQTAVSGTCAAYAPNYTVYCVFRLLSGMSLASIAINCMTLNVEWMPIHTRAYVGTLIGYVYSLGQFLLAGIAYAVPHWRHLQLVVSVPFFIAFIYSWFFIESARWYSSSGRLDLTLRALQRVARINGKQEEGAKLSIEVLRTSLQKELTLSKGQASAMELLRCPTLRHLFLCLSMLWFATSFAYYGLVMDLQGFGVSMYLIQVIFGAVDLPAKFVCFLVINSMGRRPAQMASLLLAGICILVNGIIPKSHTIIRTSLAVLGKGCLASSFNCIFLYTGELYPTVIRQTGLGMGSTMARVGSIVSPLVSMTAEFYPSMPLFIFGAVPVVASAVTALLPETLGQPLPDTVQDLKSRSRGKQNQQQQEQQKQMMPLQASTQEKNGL
The experiment in a line: TP_TRANSPORTER: inhibition of PAH uptake in Xenopus laevis oocytes. The assay is classed as functional, cell-based, Oocyte.
On to `COc1ccc(Cl)cc1C(=O)NCCc1ccc(S(=O)(=O)NC(=O)NC2CCCCC2)cc1` [GLYBURIDE], for which the inhibition constant (Ki) was 1.6 µM.

With `CCCCNC(=O)NS(=O)(=O)c1ccc(C)cc1` [TOLBUTAMIDE], the Ki was found to be 55.5 µM.

For `CC(C)[C@H]1CC[C@H](C(=O)N[C@H](Cc2ccccc2)C(=O)O)CC1` [NATEGLINIDE], the affinity corresponds to a Ki of 9.2 µM.

Regarding `CCCNC(=O)NS(=O)(=O)c1ccc(Cl)cc1` [CHLORPROPAMIDE], the Ki is 39.5 µM.

For orientation: Ki means the equilibrium dissociation constant of an inhibitor or competing ligand from its target. Low values mean a stronger hold on the target, high ones a looser hold on the target.
